The record followed here is ChEMBL document CHEMBL2010728, “Bicyclic benzofuran and indole-based salicylic acids as protein tyrosine phosphatase inhibitors” (Bioorg Med Chem, 2012).

Test [1] concerns the target Tyrosine-protein phosphatase YopH (Yersinia pseudotuberculosis serotype I (strain IP32953), UniProt P08538). Description: Inhibition of Yersinia pseudotuberculosis YopH.
The target of test [2] is T1, Tyrosine-protein phosphatase non-receptor type 1 (Homo sapiens, UniProt P18031).
T1 sequence (P18031 whole entry): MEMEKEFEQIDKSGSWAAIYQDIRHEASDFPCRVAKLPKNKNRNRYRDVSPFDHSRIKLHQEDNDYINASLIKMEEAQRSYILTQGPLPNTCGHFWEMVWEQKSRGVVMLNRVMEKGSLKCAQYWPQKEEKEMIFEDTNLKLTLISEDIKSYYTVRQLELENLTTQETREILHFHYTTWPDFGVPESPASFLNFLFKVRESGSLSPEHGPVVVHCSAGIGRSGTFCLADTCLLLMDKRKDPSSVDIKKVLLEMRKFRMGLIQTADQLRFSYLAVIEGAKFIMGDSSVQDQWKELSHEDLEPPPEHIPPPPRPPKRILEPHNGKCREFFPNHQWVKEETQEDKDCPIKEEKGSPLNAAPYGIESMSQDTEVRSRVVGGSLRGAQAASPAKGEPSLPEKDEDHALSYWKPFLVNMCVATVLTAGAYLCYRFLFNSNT
Description: Inhibition of PTP1B expressed in Escherichia coli BL21 (DE3) cells using p-nitrophenyl phosphate as substrate after 2 to 3 mins by spectrophotometric analysis.

In test [3] the target is T2, Tyrosine-protein phosphatase non-receptor type 1 (Homo sapiens) (UniProt P18031).
T2 sequence (whole entry): T1 sequence (P18031 whole entry)
Description: Ratio of Ki for salicylic acid to compound Ki for PTP1B.

The species entered for test [4] is Homo sapiens. The test can be described thus: Selectivity ratio of Ki for human recombinant TC-PTP to Ki for PTP1B.
A short description of test [5]: Selectivity ratio of Ki for PTP to Ki for PTP1B.

Chain of Tyrosine-protein phosphatase YopH (P08538 whole entry): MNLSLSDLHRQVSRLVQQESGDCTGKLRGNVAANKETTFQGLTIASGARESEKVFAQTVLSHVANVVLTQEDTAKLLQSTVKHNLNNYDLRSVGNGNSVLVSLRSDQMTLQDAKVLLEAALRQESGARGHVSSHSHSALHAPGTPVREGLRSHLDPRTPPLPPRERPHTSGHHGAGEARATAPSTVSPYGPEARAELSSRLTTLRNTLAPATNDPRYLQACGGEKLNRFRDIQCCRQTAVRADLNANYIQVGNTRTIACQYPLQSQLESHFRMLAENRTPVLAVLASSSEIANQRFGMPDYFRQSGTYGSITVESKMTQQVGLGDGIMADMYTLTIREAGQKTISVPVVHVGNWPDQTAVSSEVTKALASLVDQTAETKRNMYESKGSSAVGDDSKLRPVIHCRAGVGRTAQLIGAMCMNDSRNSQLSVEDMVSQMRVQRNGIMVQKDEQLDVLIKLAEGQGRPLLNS

In general, IC50 refers to the concentration that inhibits the measured activity by half. Lower therefore signals higher potency. For the molecule `O=C(O)c1cc2cc(O)ccc2cc1O`, half-maximal inhibition in test [1] (IC50) was put at 60 µM.

`O=C(O)c1cc2cccc(O)c2cc1O` came in with an IC50 in test [1] of 18 µM.

A word on the Ki: it is the dissociation constant of the complex between target and ligand, obtained from inhibition or displacement. `O=C(O)c1cc(NCn2c(=S)[nH]c3ccccc32)ccc1O` yielded a Ki in test [2] of 61 µM.

Regarding `O=C(O)c1cc(NCn2c(S)nc3ccccc32)ccc1O`, the Ratio Ki in test [3] was found to be 320.

Consider `N[C@@H](Cc1ccc(C(F)(F)P(=O)(O)O)cc1)C(=O)O` [PHOSPHONODIFLUOROMETHYL PHENYLALANINE], for which the Ratio in test [4] was found to be 10. Moreover, the Ratio Ki in test [5] is 1000. The affinity in test [2] corresponds to a Ki of 0.0024 µM.

Regarding `O=C(O)c1ccccc1O` [SALICYLIC ACID], the Ki turned out to be 19400 µM in test [2] and 1000 µM in test [1].
